Data reported in paper PMC3740347 (Journal of the American Chemical Society, 2013).
Where two headings read alike, the source gives them in different places.

Columns and labels:
GST-VH1 [1] = target: T1, GST-VH1 (Vaccinia virus, UniProt P07239)
GST-VH1 [2] = target: T1, GST-VH1; conditions: pH 7.4

Substance: HQYFMpTEYVAT
- kcat/KM (GST-VH1 [1]): 490 M⁻¹ s⁻¹

Substance: HQYFMpTEpYVAT
- kcat/KM (GST-VH1 [1]): 3200 M⁻¹ s⁻¹

Substance: YDEDFpYDYEF [Peptide 26]
- Km (GST-VH1 [2]): 11 µM
- kcat (GST-VH1 [2]): 2.6 s⁻¹

Substance: YNAFAIpTAA [Peptide 2]
- fold decrease of VH1 catalytic activity relative to parent peptide (GST-VH1 [1]): ~ 2 fold
- Km (GST-VH1 [1]; pH 7.4): > 2000 µM
- kcat/KM (GST-VH1 [1]; pH 7.4): 93 ± 3 M⁻¹ s⁻¹
